In patent US5041567A, “Antibacterial monic acid derivatives” (Beecham Group plc, priority 1982, dated 1991):
Values after ≈ are worked out from the molar mass of the structure shown. Like-named read-outs stand apart in the source and are kept apart here.

Columns and labels:
M. suipneumoniae Str. 11 = experiment: MIC against mycoplasma in vitro; type: cell-based; details: Mesomycoplasma hyopneumoniae, 144 h; M. suipneumoniae Str. 11; 6 days, 37° C.; read-out: MIC
[1] = tested on: Pasteurella multocida 1633; experiment: MIC against human bacteria in vitro; type: cell-based; details: Pasteurella multocida 1633; 5% chocolated horse blood agar, 18 hours; read-out: MIC
S. typhimurium S18 = experiment: MIC against veterinary bacteria in vitro; details: Salmonella enterica, TYPHIMURIUM, 18 h
Protocol: (§1) The activity of the compounds of the Examples against various veterinarily important bacteria, was assayed in vitro using two-fold serial dilutions in Diagnostic Sensitivity Test Agar inoculated with 10^4 organisms.

Strep. pneumoniae CN33 = experiment: MIC against human bacteria in vitro; type: cell-based; details: Streptococcus pneumoniae; Strep. pneumoniae CN33; 5% chocolated horse blood agar, 18 hours; read-out: MIC
[2] = tested on: M. suipneumoniae NCTC 10110; experiment: MIC against mycoplasma in vitro; type: cell-based; details: Mesomycoplasma hyopneumoniae, NCTC10110, 144 h; M. suipneumoniae NCTC 10110; 6 days, 37° C.; read-out: MIC
P. mirabilis 889 = experiment: MIC against human bacteria in vitro; type: cell-based
K. aerogenes A = experiment: MIC against human bacteria in vitro; type: cell-based; details: Klebsiella aerogenes; K. aerogenes A; 5% chocolated horse blood agar, 18 hours; read-out: MIC
Staph. aureus Oxford [3] = experiment: MIC against veterinary bacteria in vitro; details: Staphylococcus aureus, 18 h
Protocol: as §1

Staph. aureus Oxford [4] = experiment: MIC against human bacteria in vitro; type: cell-based; details: Staphylococcus aureus; Staph. aureus Oxford; 5% chocolated horse blood agar, 18 hours; read-out: MIC
M. hyorhinis ATCC 25021 = experiment: MIC against mycoplasma in vitro; type: cell-based; details: Mesomycoplasma hyorhinis, ATCC25021, 144 h
[5] = tested on: Corynebacterium pyogenes CY1; experiment: MIC against veterinary bacteria in vitro; details: CY1, 18 h
Protocol: as §1

M. hyorhinis ATCC 23234 = experiment: MIC against mycoplasma in vitro; type: cell-based; details: Mesomycoplasma hyorhinis, ATCC23234, 144 h
[6] = tested on: Strep. suis (group D) SPS11; experiment: MIC against veterinary bacteria in vitro; details: Streptococcus suis, 18 h
Protocol: as §1

Bord. bronchiseptica B08 = experiment: MIC against veterinary bacteria in vitro; details: Bordetella bronchiseptica, B08, 18 h
Protocol: as §1

[7] = tested on: Staph. aureus 152 (pen. sens); experiment: MIC against veterinary bacteria in vitro; details: Staphylococcus aureus, 18 h
Protocol: as §1

M. bovis NCTC 10131 = experiment: microbe, parasite or virus in culture; type: cell-based; details: NCTC10131, 144 h
M. gallisepticum S6 = experiment: MIC against mycoplasma in vitro; type: cell-based; details: Mycoplasmoides gallisepticum
Staph. aureus W2827 = experiment: MIC against human bacteria in vitro; type: cell-based; details: Staphylococcus aureus; Staph. aureus W2827; 5% chocolated horse blood agar, 18 hours; read-out: MIC
M. suipneumoniae NB12 = experiment: MIC against mycoplasma in vitro; type: cell-based; details: Mesomycoplasma hyopneumoniae, 144 h; M. suipneumoniae NB12; Friis broth, 0.9% agarose, 6 days, 37° C.; read-out: MIC
Strep. faecalis I = experiment: MIC against human bacteria in vitro; type: cell-based; details: Enterococcus faecalis; Strep. faecalis I; 5% chocolated horse blood agar, 18 hours; read-out: MIC
M. dispar NCTC 10125 = experiment: MIC against mycoplasma in vitro; type: cell-based; details: 144 h
Past. multocida PA2 = experiment: MIC against veterinary bacteria in vitro; details: Pasteurella multocida, PA2, 18 h
Protocol: as §1

M. suipneumoniae HK(2) = experiment: MIC against mycoplasma in vitro; type: cell-based; details: Mesomycoplasma hyopneumoniae, 144 h; M. suipneumoniae HK(2); 6 days, 37° C.; read-out: MIC
M. suipneumoniae TAM 6N = experiment: MIC against mycoplasma in vitro; type: cell-based; details: Mesomycoplasma hyopneumoniae, TAM6N, 144 h; M. suipneumoniae TAM 6N; 6 days, 37° C.; read-out: MIC
M. suipneumoniae UCD 1 = experiment: MIC against mycoplasma in vitro; type: cell-based; details: Mesomycoplasma hyopneumoniae, UCD1, 144 h; M. suipneumoniae UCD 1; 6 days, 37° C.; read-out: MIC
M. suipneumoniae MS 16 = experiment: MIC against mycoplasma in vitro; type: cell-based; details: Mesomycoplasma hyopneumoniae, MS16, 144 h
[8] = tested on: M. suipneumoniae PW/C/210; experiment: MIC against mycoplasma in vitro; type: cell-based; details: Mesomycoplasma hyopneumoniae, 144 h
[9] = tested on: M. suipneumoniae J2206/183^b; experiment: MIC against mycoplasma in vitro; type: cell-based; details: Mesomycoplasma hyopneumoniae, 144 h; M. suipneumoniae J2206/183^b; 6 days, 37° C.; read-out: MIC
[10] = tested on: Staph. aureus B4 (pen. resistant); experiment: MIC against veterinary bacteria in vitro; details: Staphylococcus aureus, 18 h
Protocol: as §1

Strep. agalactiae 2788-B = experiment: MIC against human bacteria in vitro; type: cell-based; details: Streptococcus agalactiae; Strep. agalactiae 2788-B; 5% chocolated horse blood agar, 18 hours; read-out: MIC
Sarcina lutea 8340 = experiment: MIC against human bacteria in vitro; type: cell-based; details: Micrococcus luteus; Sarcina lutea 8340; 5% chocolated horse blood agar, 18 hours; read-out: MIC
[11] = tested on: Erysipelothrix rhusiopathiae NCTC 8163; experiment: MIC against veterinary bacteria in vitro; details: Erysipelothrix rhusiopathiae, NCTC8163, 18 h
Protocol: as §1

M. suipneumoniae JF 435 = experiment: MIC against mycoplasma in vitro; type: cell-based; details: Mesomycoplasma hyopneumoniae, JF435, 144 h; M. suipneumoniae JF 435; 6 days, 37° C.; read-out: MIC
[12] = tested on: M. bovigenitalium ATCC 14173; experiment: MIC against mycoplasma in vitro; type: cell-based; details: 144 h
Strep. dysgalactiae SPD1 = experiment: MIC against veterinary bacteria in vitro; details: Streptococcus dysgalactiae, SPD1, 18 h
Protocol: as §1

[13] = Proteus mirabilis, P. mirabilis 889, 5% chocolated horse blood agar, 18 hours, read-out: MIC
[14] = M. hyorhinis ATCC 25021, 6 days, 37° C., read-out: MIC
[15] = M. hyorhinis ATCC 23234, 6 days, 37° C., read-out: MIC
[16] = 144 h, M. gallisepticum S6, 6 days, 37° C., read-out: MIC
[17] = M. suipneumoniae MS 16, 6 days, 37° C., read-out: MIC
[18] = M. suipneumoniae PW/C/210, 6 days, 37° C., read-out: MIC

SMILES | MIC (M. suipneumoniae Str. 11) [µg/mL] | MIC [1] [µg/mL] | MIC (S. typhimurium S18) [µg/mL] | MIC (Strep. pneumoniae CN33) [µg/mL] | MIC [2] [µg/mL] | MIC (K. aerogenes A) [µg/mL] | MIC (Staph. aureus Oxford [3]) [µg/mL] | MIC (Staph. aureus Oxford [4]) [µg/mL] | MIC [5] [µg/mL] | MIC [6] [µg/mL] | MIC (Bord. bronchiseptica B08) [µg/mL] | MIC [7] [µg/mL] | MIC (M. bovis NCTC 10131) [µg/mL] | MIC (Staph. aureus W2827) [µg/mL] | MIC (M. suipneumoniae NB12) [µg/mL] | MIC (Strep. faecalis I) [µg/mL] | MIC (Past. multocida PA2) [µg/mL] | MIC (M. suipneumoniae HK(2)) [µg/mL] | MIC (M. suipneumoniae TAM 6N) [µg/mL] | MIC (M. suipneumoniae UCD 1) [µg/mL] | also measured
C/C(=C\c1ncc(-c2ccc(C=O)cc2)o1)C[C@@H]1OC[C@H](C[C@@H]2O[C@H]2[C@@H](C)[C@H](C)O)[C@@H](O)[C@H]1O [Example 15, 5-p-Formylphenyl-2-(1-normon-2-yl) oxazole A] | 0.5 (≈ 1.06 µM) | 32 (≈ 67.9 µM) | > 80 | 8 (≈ 17 µM) | 0.5 (≈ 1.06 µM) | > 128 | 1.25 (≈ 2.65 µM) | 2 (≈ 4.24 µM) | > 80 | 20 (≈ 42.4 µM) | 80 (≈ 170 µM) | 0.625 (≈ 1.33 µM) | 0.05 (≈ 0.106 µM) | 8 (≈ 17 µM) | 0.5 (≈ 1.06 µM) | > 128 | < 0.039 | 0.5 (≈ 1.06 µM) | 0.5 (≈ 1.06 µM) | 0.5 (≈ 1.06 µM) | MIC (P. mirabilis 889; [13]): > 128 µg/mL; MIC (M. hyorhinis ATCC 25021): 0.25 µg/mL (≈ 0.53 µM); MIC (M. hyorhinis ATCC 23234): 0.25 µg/mL (≈ 0.53 µM); MIC (M. gallisepticum S6; S6, 144 h): 1 µg/mL (≈ 2.12 µM); MIC (M. dispar NCTC 10125): 0.1 µg/mL (≈ 0.212 µM); MIC (M. suipneumoniae MS 16): 0.25 µg/mL (≈ 0.53 µM); MIC [8]: 0.25 µg/mL (≈ 0.53 µM); MIC [9]: 0.5 µg/mL (≈ 1.06 µM); MIC [10]: 2.5 µg/mL (≈ 5.3 µM); MIC (Strep. agalactiae 2788-B): 8 µg/mL (≈ 17 µM); MIC (Sarcina lutea 8340): > 128 µg/mL; MIC [11]: > 80 µg/mL; MIC (M. suipneumoniae JF 435): 0.5 µg/mL (≈ 1.06 µM); MIC [12]: 0.05 µg/mL (≈ 0.106 µM); MIC (Strep. dysgalactiae SPD1): 1.25 µg/mL (≈ 2.65 µM)
COC(=O)c1ccc(-c2cnc(/C=C(\C)C[C@@H]3OC[C@H](C[C@@H]4O[C@H]4[C@@H](C)[C@H](C)O)[C@@H](O)[C@H]3O)o2)cc1 [Example 16, 5-p-Methoxycarbonylphenyl-2-(1-normon-2-yl) oxazole A] | 0.25 (≈ 0.498 µM) | 16 (≈ 31.9 µM) | > 80 | 4 (≈ 7.97 µM) | 0.5 (≈ 0.997 µM) | > 64 | 1.25 (≈ 2.49 µM) | 4 (≈ 7.97 µM) | > 80 | 20 (≈ 39.9 µM) | > 80 | 1.25 (≈ 2.49 µM) | 0.05 (≈ 0.0997 µM) | 4 (≈ 7.97 µM) | 0.5 (≈ 0.997 µM) | > 64 | < 0.039 | 0.5 (≈ 0.997 µM) | 0.5 (≈ 0.997 µM) | 0.5 (≈ 0.997 µM) | MIC (P. mirabilis 889; [13]): > 64 µg/mL; MIC (M. hyorhinis ATCC 25021; [14]): 0.25 µg/mL (≈ 0.498 µM); MIC (M. hyorhinis ATCC 23234; [15]): 0.25 µg/mL (≈ 0.498 µM); MIC (M. gallisepticum S6; [16]): 2.5 µg/mL (≈ 4.98 µM); MIC (M. dispar NCTC 10125; M. dispar NCTC 10125, 6 days, 37° C., read-out: MIC): 0.1 µg/mL (≈ 0.199 µM); MIC (M. suipneumoniae MS 16; [17]): 0.25 µg/mL (≈ 0.498 µM); MIC [8, 18]: 0.25 µg/mL (≈ 0.498 µM); MIC [9]: 0.5 µg/mL (≈ 0.997 µM); MIC [10]: 5 µg/mL (≈ 9.97 µM); MIC (Strep. agalactiae 2788-B): 4 µg/mL (≈ 7.97 µM); MIC (Sarcina lutea 8340): > 64 µg/mL; MIC [11]: 80 µg/mL (≈ 159 µM); MIC (M. suipneumoniae JF 435): 0.5 µg/mL (≈ 0.997 µM); MIC ([12]; M. bovigenitalium ATCC 14173, 6 days, 37° C., read-out: MIC): 0.1 µg/mL (≈ 0.199 µM); MIC (Strep. dysgalactiae SPD1): 1.25 µg/mL (≈ 2.49 µM)
C/C(=C\c1ncc(-c2ccccc2)s1)C[C@@H]1OC[C@H](C[C@@H]2O[C@H]2[C@@H](C)[C@H](C)O)[C@@H](O)[C@H]1O [Example 29, 2-(1-Normon-2-yl)-5-phenylthiazole A] | 10 (≈ 21.8 µM) | > 100 | > 80 | 50 (≈ 109 µM) | > 10 | > 100 | 10 (≈ 21.8 µM) | 25 (≈ 54.4 µM) | > 80 | > 80 | > 80 | 10 (≈ 21.8 µM) | 0.5 (≈ 1.09 µM) | 50 (≈ 109 µM) | 10 (≈ 21.8 µM) | > 100 | 80 (≈ 174 µM) | > 10 | > 10 | > 10 | MIC (P. mirabilis 889; Proteus mirabilis, 889, 18 h): > 100 µg/mL; MIC (M. hyorhinis ATCC 25021; [14]): 10 µg/mL (≈ 21.8 µM); MIC (M. hyorhinis ATCC 23234; [15]): > 10 µg/mL; MIC (M. gallisepticum S6; [16]): > 10 µg/mL; MIC (M. dispar NCTC 10125): 2.5 µg/mL (≈ 5.44 µM); MIC (M. suipneumoniae MS 16; [17]): 10 µg/mL (≈ 21.8 µM); MIC [8, 18]: 10 µg/mL (≈ 21.8 µM); MIC [9]: > 10 µg/mL; MIC [10]: 10 µg/mL (≈ 21.8 µM); MIC (Strep. agalactiae 2788-B): 50 µg/mL (≈ 109 µM); MIC (Sarcina lutea 8340): > 100 µg/mL; MIC [11]: > 80 µg/mL; MIC (M. suipneumoniae JF 435): > 10 µg/mL; MIC [12]: 1 µg/mL (≈ 2.18 µM); MIC (Strep. dysgalactiae SPD1): 20 µg/mL (≈ 43.5 µM)
